Where a name gives a salt, the structure may show the parent alone.
Legend:
NMDA-receptor subtype 2B = biological target: T1, NMDA-receptor subtype 2B (Rattus norvegicus, UniProt P35439+Q00960); test: 3H-Ro 25-6981 binding (displacement) on rat brain membranes; settings: displacement of 5 nM 3H-Ro 25-6981, rat whole brain membranes (minus cerebellum and medulla oblongata), 2 hours at 4° C.
T1 construct: Membranes were prepared by homogenization of the whole brain minus cerebellum and medulla oblongata; from tissue; host or cells: rat whole brain minus cerebellum and medulla oblongata, membrane preparation
T1 sequence (Q00960 27-1482, other chains not shown): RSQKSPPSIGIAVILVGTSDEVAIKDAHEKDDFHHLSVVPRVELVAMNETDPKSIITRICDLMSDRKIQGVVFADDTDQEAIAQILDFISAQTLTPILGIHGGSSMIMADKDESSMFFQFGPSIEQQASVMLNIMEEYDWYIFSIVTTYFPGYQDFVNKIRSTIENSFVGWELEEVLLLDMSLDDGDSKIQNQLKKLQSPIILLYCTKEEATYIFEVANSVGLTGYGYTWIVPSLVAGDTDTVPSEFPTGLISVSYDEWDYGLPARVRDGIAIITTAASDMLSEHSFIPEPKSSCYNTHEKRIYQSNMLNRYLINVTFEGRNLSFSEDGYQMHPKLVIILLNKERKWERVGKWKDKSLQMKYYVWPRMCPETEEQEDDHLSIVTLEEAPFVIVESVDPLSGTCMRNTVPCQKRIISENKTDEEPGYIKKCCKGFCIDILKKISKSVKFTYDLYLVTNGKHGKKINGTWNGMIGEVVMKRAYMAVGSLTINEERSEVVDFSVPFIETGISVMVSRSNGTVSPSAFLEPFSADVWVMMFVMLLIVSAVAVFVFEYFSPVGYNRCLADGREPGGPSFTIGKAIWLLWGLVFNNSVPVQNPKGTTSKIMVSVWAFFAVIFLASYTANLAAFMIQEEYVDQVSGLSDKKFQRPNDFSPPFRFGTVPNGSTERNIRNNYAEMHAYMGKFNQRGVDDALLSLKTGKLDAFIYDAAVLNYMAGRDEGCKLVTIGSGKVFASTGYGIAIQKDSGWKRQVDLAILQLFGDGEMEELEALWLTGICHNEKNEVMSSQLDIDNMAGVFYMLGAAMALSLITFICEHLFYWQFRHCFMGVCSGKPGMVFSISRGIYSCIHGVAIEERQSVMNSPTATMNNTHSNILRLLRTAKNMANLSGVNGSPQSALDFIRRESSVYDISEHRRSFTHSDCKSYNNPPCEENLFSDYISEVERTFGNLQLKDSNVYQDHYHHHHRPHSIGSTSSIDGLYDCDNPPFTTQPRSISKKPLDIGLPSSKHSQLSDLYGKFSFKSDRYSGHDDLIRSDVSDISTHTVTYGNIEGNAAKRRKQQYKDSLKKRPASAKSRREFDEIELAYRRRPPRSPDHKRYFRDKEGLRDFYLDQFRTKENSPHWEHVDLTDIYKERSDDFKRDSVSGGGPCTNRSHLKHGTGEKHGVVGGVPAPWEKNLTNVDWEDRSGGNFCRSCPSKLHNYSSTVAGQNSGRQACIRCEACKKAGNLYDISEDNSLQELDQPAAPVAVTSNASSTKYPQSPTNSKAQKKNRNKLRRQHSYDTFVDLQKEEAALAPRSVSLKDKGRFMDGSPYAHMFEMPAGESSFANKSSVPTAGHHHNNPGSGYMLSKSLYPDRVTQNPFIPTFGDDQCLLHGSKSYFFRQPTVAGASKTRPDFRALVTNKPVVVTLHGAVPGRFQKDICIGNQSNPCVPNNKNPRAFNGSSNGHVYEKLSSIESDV
Method: ^3H[R-(R*,S*)]-(α-(4-Hydroxy-phenyl)-β-methyl-4-(phenyl-methyl)-1-piperidine propanol)binding
Male Füllinsdorf albino rats weighing between 150-200 g were used. Membranes were prepared by homogenization of the whole brain minus cerebellum and medulla oblongata with a Polytron (10.000 rpm, 30 seconds), in 25 volumes of a cold Tris-HCl 50 mM, EDTA 10 mM, pH 7.1 buffer. The homogenate was centrifuged at 48,000 g for 10 minutes at 4° C. The pellet was resuspended using the Polytron in the same volume of buffer and the homogenate was incubated at 37° C. for 10 minutes. After centrifugation the pellet was homogenized in the same buffer and frozen at −80° C. for at least 16 hours but not more than 10 days. For the binding assay the homogenate was thawed at 37° C., centrifuged and the pellet was washed three times as above in a Tris-HCl 5 mM, pH 7.4 cold buffer. The final pellet was resuspended in the same buffer and used at a final concentration of […]. ^3H-Ro 25-6981 binding experiments were performed using a Tris-HCl 50 mM, pH 7.4 buffer. For displacement experiments 5 nM of ^3H-Ro 25-6981 were used and non specific binding was measured using 10 mM of tetrahydroisoquinoline and usually it accounts for 10% of the total. The incubation time was 2 hours at 4° C. and the assay was stopped by filtration on Whatmann GF/B glass fiber filters (Unifilter-96, Packard, Zürich, Switzerland). The filters were washed 5 times with cold buffer. The radioactivity on the filter was counted on a Packard Top-count microplate scintillation counter after addition of […] of microscint 40 (Canberra Packard S.A., Zuirich, Switzerland).
The effects of compounds were measured using a minimum of 8 concentrations and repeated at least once.

Compound: 1H-Imidazole, 1-(3,4-Dichlorophenyl)-4-[(4-methyl-1H-imidazol-1-yl)methyl]-, Hydrochloride (1:2) and 1H-Imidazole, 1-(3,4-Dichlorophenyl)-4-[(5-methyl-1H-imidazol-1-yl)methyl]-, Hydrochloride (1:2) (ratio 3:2) [Example 6]
- IC50 (NMDA-receptor subtype 2B): 0.045 µM

Compound: 4-Imidazol-1-ylmethyl-1-(3-methylsulfanyl-phenyl)-1H-imidazole Hydrochloride (1:2) [Example 145]
- IC50 (NMDA-receptor subtype 2B): 0.054 µM

Compound: CCCc1nccn1Cc1cn(-c2ccc(Cl)c(Cl)c2)cn1.Cl.Cl [Example 1, 1H-Imidazole, 1-[[1-(3,4-Dichlorophenyl)-1H-imidazol-4-yl]methyl]-2-propyl-, Hydrochloride (1:2)]
- melting point: 241 to 243 °C
- IC50 (NMDA-receptor subtype 2B): 0.007 µM

Compound: Cc1nccn1Cc1cn(-c2ccc(Cl)c(Cl)c2)cn1.Cl.Cl [Example 2, 1H-Imidazole, 1-[[1-(3,4-Dichlorophenyl)-1H-imidazol-4-yl]methyl]-2-methyl-, Hydrochloride (1:2)]
- melting point: > 250 °C
- IC50 (NMDA-receptor subtype 2B): 0.01 µM

Compound: CCc1nccn1Cc1cn(-c2ccc(Cl)c(Cl)c2)cn1.Cl.Cl [Example 3, 1H-Imidazole, 1-[[1-(3,4-Dichlorophenyl)-1H-imidazol-4-yl]methyl]-2-ethyl-, Hydrochloride (1:2)]
- melting point: > 250 °C
- IC50 (NMDA-receptor subtype 2B): 0.012 µM

Compound: CC(C)c1nccn1Cc1cn(-c2ccc(Cl)c(Cl)c2)cn1.Cl.Cl [Example 4, 1H-Imidazole, 1-[[1-(3,4-Dichlorophenyl)-1H-imidazol-4-yl]methyl]-2-(1-methylethyl)-, Hydrochloride (1:2)]
- melting point: 236 to 238 °C (dec.)
- IC50 (NMDA-receptor subtype 2B): 0.017 µM

Compound: CCc1nccn1Cc1cn(-c2ccc(Cl)c(C)c2)cn1.Cl.Cl [Example 10, 1H-Imidazole, 1-[[1-(4-Chloro-3-methylphenyl)-1H-imidazol-4-yl]methyl]-2-ethyl-, Hydrochloride (1:2)]
- melting point: 186 to 187 °C
- IC50 (NMDA-receptor subtype 2B): 0.004 µM

Compound: Cc1cc(-n2cnc(Cn3ccnc3C)c2)ccc1Cl.Cl.Cl [Example 11, 1H-Imidazole, 1-[[1-(4-Chloro-3-methylphenyl)-1H-imidazol-4-yl]methyl]-2-methyl-, Hydrochloride (1:2)]
- melting point: 218 to 220 °C
- IC50 (NMDA-receptor subtype 2B): 0.005 µM

Compound: Cc1cc(-n2cnc(Cn3ccnc3)c2)ccc1Cl.Cl.Cl [Example 12, 1H-Imidazole, 1-(4-Chloro-3-methylphenyl)-4-(1H-imidazol-1-yl-methyl)-, Hydrochloride (1:2)]
- melting point: 206 to 207 °C
- IC50 (NMDA-receptor subtype 2B): 0.008 µM

Compound: Cc1cc(-n2cnc(Cn3cnc(C)c3C)c2)ccc1Cl.Cl.Cl [Example 13, 1H-Imidazole, 1-[[1-(4-Chloro-3-methylphenyl)-1H-imidazol-4-yl]methyl]-4,5-dimethyl-, Hydrochloride (1:2)]
- melting point: > 250 °C
- IC50 (NMDA-receptor subtype 2B): 0.095 µM

Compound: Cc1nccn1Cc1cn(-c2ccc3c(c2)CCC3)cn1.Cl.Cl [Example 16, 1H-Imidazole, 1-[[1-(2,3-Dihydro-1H-inden-5-yl)-1H-imidazol-4-yl]methyl]-2-methyl-, Hydrochloride (1:2)]
- melting point: 242 to 243 °C
- IC50 (NMDA-receptor subtype 2B): 0.009 µM

Compound: CCc1nccn1Cc1cn(-c2ccc3c(c2)CCC3)cn1.Cl.Cl [Example 17, 1H-Imidazole, 1-[[1-(2,3-Dihydro-1H-inden-5-yl)-1H-imidazol-4-yl]methyl]-2-ethyl-, Hydrochloride (1:2)]
- melting point: 240 to 241 °C
- IC50 (NMDA-receptor subtype 2B): 0.012 µM

Compound: Cc1ccc(-n2cnc(Cn3ccnc3)c2)cc1C [Example 21]
- IC50 (NMDA-receptor subtype 2B): 0.043 µM

Compound: CSc1ccc(-n2cnc(Cn3ccnc3C)c2)cc1 [Example 27]
- IC50 (NMDA-receptor subtype 2B): 0.027 µM

Compound: Cc1cc(-n2cnc(Cn3ccnc3N)c2)ccc1Cl [Example 105, 1-[1-(4-Chloro-3-methyl-phenyl)-1H-imidazol-4-yl-methyl]-1H-imidazol-2-yl-amine-, Hydrochloride (1:2)]
- IC50 (NMDA-receptor subtype 2B): 0.001 µM

Compound: CC(=O)Nc1nccn1Cc1cn(-c2ccc(Cl)c(Cl)c2)cn1 [Example 110, N-{1-[1-(3,4-Dichloro-phenyl)-1H-imidazol-4-yl-methyl]-1H-imidazol-2-yl}-acetamide]
- melting point: > 236 °C (dec.)

Compound: Cc1nccn1Cc1cnn(-c2ccc(Cl)c(Cl)c2)c1 [Example 114, 1-(3,4-Dichloro-phenyl)-4-(2-methyl-imidazol-1-yl-methyl)-1H-pyrazole]
- melting point: 176 to 177 °C

Compound: Cc1cc(-c2c[nH]c(Cn3ccnc3C)n2)ccc1F [Example 119, 1H-Imidazole, 1-[[4-(4-Fluoro-3-methylphenyl)-1H-imidazol-2-yl]methyl]-2-methyl-, Hydrochloride (1:2)]
- IC50 (NMDA-receptor subtype 2B): 0.046 µM

Compound: Cc1ccc(-c2cncc(Cn3ccnc3C)c2)cc1C [Example 130, 3-(3,4-Dimethyl-phenyl)-5-(2-methyl-imidazol-1-yl-methyl)-pyridine Hydrochloride (1:1)]
- IC50 (NMDA-receptor subtype 2B): 0.065 µM

Compound: Cc1ccc(-c2cncc(Cn3ccnc3C)c2)cc1Cl [Example 136, 3-(3-Chloro-4-methyl-phenyl)-5-(2-methyl-imidazol-1-yl-methyl)-pyridine Hydrochloride (1:1)]
- IC50 (NMDA-receptor subtype 2B): 0.08 µM

Compound: Cc1nccn1Cc1cncc(-c2ccc3c(c2)CCC3)c1 [Example 139, 3-Indan-5-yl-5-(2-methyl-imidazol-1-yl-methyl)-pyridine Hydrochloride (1:1)]
- IC50 (NMDA-receptor subtype 2B): 0.065 µM

Compound: Cc1nccn1Cc1cncc(-c2ccc(F)c(Cl)c2)c1 [Example 140, 3-(3-Chloro-4-fluoro-phenyl)-5-(2-methyl-imidazol-1-yl-methyl)-pyridine Hydrochloride (1:1)]
- IC50 (NMDA-receptor subtype 2B): 0.04 µM

Compound: Cc1nccn1Cc1cncc(-c2ccc(Cl)c(C(F)(F)F)c2)c1 [Example 141, 3-(4-Chloro-3-trifluoromethyl-phenyl)-5-(-2-methyl-imidazol-1-yl-methyl)-pyridine Hydrochloride (1:1)]
- IC50 (NMDA-receptor subtype 2B): 0.039 µM

Compound: CCc1nccn1Cc1cn(-c2cccc(SC(F)(F)F)c2)cn1 [Example 143]
- IC50 (NMDA-receptor subtype 2B): 0.0073 µM

Compound: CCc1nccn1Cc1cn(-c2ccc(F)c(C(C)(F)F)c2)cn1 [Example 151, 1H-Imidazole, 1-[[1-1-[3-(1,1-Difluoroethyl)-4-fluorophenyl]-1H-imidazol-4-yl]methyl]-ethyl-, Hydrochloride (1:2)]
- IC50 (NMDA-receptor subtype 2B): 0.014 µM

Compound: CCc1nccn1Cc1cn(-c2cccc(C(C)C)c2)cn1 [Example 153]
- IC50 (NMDA-receptor subtype 2B): 0.02 µM

Compound: Cc1nccn1Cc1cn(-c2ccc3ccccc3c2)cn1 [Example 155, 1H-Imidazole, 2-Methyl-1-[[1-(naphtalen-2-yl)-1H-imidazol-4-yl]methyl]-, Hydrochloride (1:2)]
- IC50 (NMDA-receptor subtype 2B): 0.01 µM

Compound: CCc1nccn1Cc1cn(-c2ccc(F)c(C(F)F)c2)cn1 [Example 164, 1H-Imidazole, 1-[[1-(3-Difluoromethyl-4-fluorophenyl)-1H-imidazol-4-yl]methyl]-2-ethyl-, Hydrochloride (1:2)]
- IC50 (NMDA-receptor subtype 2B): 0.03 µM

Compound: CSc1cccc(-n2cnc(Cn3ccnc3)c2)c1 [Example 168, 4-Imidazol-1-ylmethyl-1-(3-methylsulfanyl-phenyl)-1H-imidazole Hydrochloride (1:2)]
- IC50 (NMDA-receptor subtype 2B): 0.038 µM

Compound: Cc1nccn1Cc1cn(-c2cccc(Cl)c2)cn1 [Example 173]
- IC50 (NMDA-receptor subtype 2B): 0.028 µM

Compound: CCc1nccn1Cc1cn(-c2cc(OC)cc(C(F)(F)F)c2)cn1 [Example 181]
- IC50 (NMDA-receptor subtype 2B): 0.053 µM

Compound: Cc1nccn1Cc1cncc(-c2ccc(F)c(C(F)F)c2)c1 [Example 225, 3-(3-Difluoromethyl-4-fluoro-phenyl)-5-(2-methyl-imidazol-1-ylmethyl)-pyridine]
- IC50 (NMDA-receptor subtype 2B): 0.01 µM

Compound: Cc1nccn1Cc1cncc(-c2cccc(C(C)(F)F)c2)c1 [Example 226, 3-[3-(1,1-Difluoro-ethyl)-phenyl]-5-(2-methyl-imidazol-1-ylmethyl)-pyridine]
- IC50 (NMDA-receptor subtype 2B): 0.02 µM

Compound: Cc1nccn1Cc1cncc(-c2cc(F)cc(C(F)(F)F)c2)c1 [Example 227, 3-(3-Fluoro-5-trifluoromethyl-phenyl)-5-(2-methyl-imidazol-1-ylmethyl)-pyridine]
- IC50 (NMDA-receptor subtype 2B): 0.03 µM

Compound: Clc1ccc(-n2cnc(Cn3ccnc3C3CC3)c2)cc1Cl [Example 229, 1H-Imidazole, 2-Cyclopropyl-1-[[1-(3,4-dichlorophenyl)-1H-imidazol-4-yl]methyl]-,]
- IC50 (NMDA-receptor subtype 2B): 0.012 µM

Compound: Cc1cc(-c2cnc(Cn3ccnc3C)n2C)ccc1F [Example 230, 5-(4-Fluoro-3-methyl-phenyl)-1-methyl-2-(2-methyl-imidazol-1-ylmethyl)-1-H-imidazole Hydrochloride (1:1)]
- IC50 (NMDA-receptor subtype 2B): 0.084 µM

Compound: Cc1cc(-c2cnc(Cn3ccnc3C)n2C)ccc1Cl [Example 232, 5-(4-Chloro-3-methyl-phenyl)-1-methyl-2-(2-methyl-imidazol-1-ylmethyl)-1-H-imidazole-hydrochloride Hydrochloride (1:1)]
- IC50 (NMDA-receptor subtype 2B): 0.04 µM

From patent publication US6667335B2, “Imidazole derivatives” (Hoffmann-La Roche Inc., priority 2001, dated 2003)
